The source of these data is ChEMBL document CHEMBL1158877, “Sesquiterpenoids of the drimane class from a sponge of the genus Dysidea” (J Nat Prod, 1997).

The structures appear in SMILES notation. pIC50: −log10 of the molar value. Active and inactive are the calls of the source. No cut-off for these calls is given here.

What is called pIC50 is the IC50 on a negative log10 scale, so that one unit is a factor of ten. Read a low pIC50 as a large IC50.

Test [1] has as its system Photobacterium leiognathi. As to the kind of experiment: Antimicrobial activity against Photobacterium leiognathi by bioluminescence. It counts as functional, organism-based.
Test [2] deals with Photobacterium leiognathi. The test can be described thus: Antimicrobial activity against Photobacterium leiognathi at 10 ug/ml by paper disk method. It is filed as functional.
Test [3] can be described thus: Inhibition of Na+/K+-ATPase.
A short description of test [4]: Inhibition of PLA2.

For the molecule `CC1(C)CCC[C@]2(C)[C@H]3C(=O)OC[C@@H]3CC[C@@H]12`, the results for the pIC50 in test [1], in test [3] and in test [4] were 4.05, 4.35 and 3.95, respectively. The outcome in test [2] was inactive.
As for `CO[C@@H]1O[C@H](O)[C@@]2(O)CC[C@H]3C(C)(C)CCC[C@]3(C)[C@@H]12`, the result in test [1], in test [2], in test [3] and in test [4] was inactive.
As for `CC1(C)CCC[C@]2(C)[C@@H](C=O)C(C=O)=CC[C@@H]12` [POLYGODIAL], the pIC50 is 4.94 in test [1] and 4.09 in test [3]. Also, the zone of inhibition at 10 µg/mL in test [2] (read-out: IZ) came out at 8 mm. In addition, the outcome in test [4] was inactive.
On to `CC(=O)OC[C@H]1CC[C@H]2C(C)(C)CCC[C@]2(C)[C@H]1COC(C)=O`, for which the result in test [1], in test [2], in test [3] and in test [4] was inactive.
For `CC1(C)CCC[C@]2(C)/C(=C/O)C(=O)CC[C@@H]12`, the outcome in test [1], in test [2], in test [3] and in test [4] was inactive.
Turning to `CC(=O)O[C@@H]1OC(=O)C2=CC[C@H]3C(C)(C)CCC[C@]3(C)[C@H]21`, the result in test [1], in test [2], in test [3] and in test [4] was inactive.
In test [1], `CC(=O)OC[C@H]1[C@@H](OC(C)=O)CC[C@H]2C(C)(C)CCC[C@]12C` showed a pIC50 of 4.05. Also, the outcome in test [2], in test [3] and in test [4] was inactive.
Turning to `CC(=O)O[C@@H]1OC(=O)C2=C1[C@@]1(C)CCCC(C)(C)[C@@H]1CC2`, the outcome in test [1], in test [2] and in test [4] was inactive. Also, the pIC50 in test [3] was 4.01.
Molecule `CC(=O)O[C@@H]1OC=C2CC[C@H]3C(C)(C)CCC[C@]3(C)[C@H]21` had a pIC50 in test [1] of 4.05. In addition, the result in test [2], in test [3] and in test [4] was inactive.
Regarding `CO[C@@H]1OC[C@H]2CC[C@H]3C(C)(C)CCC[C@]3(C)[C@H]21`, the pIC50 in test [1] is 4.05. The outcome in test [2], in test [3] and in test [4] was inactive.
